Results: paper PMC11826995, “Modulation of Protein–Protein Interactions with Molecular Glues in a Synthetic Condensate Platform” (Journal of the American Chemical Society, 2025)
Square brackets hold non-standard residues; d marks the D form. Peptide text beside a SMILES is read from it. * marks the point of attachment. X1 = CCN(CC)c1ccc2c(-c3ccc(NC(=S)*)cc3C(=O)[O-])c3ccc(=[N+](CC)CC)cc-3oc2c1; pS = N[C@@H](COP(=O)(O)O)C(=O)O; AEA = NCCOCC(=O)O

Key:
14-3-3γ/ERRγ interaction [1] = molecular target: T1, 14-3-3γ/ERRγ interaction (Homo sapiens, UniProt P61981); assay: Split luciferase assay inside condensates; type: biochemical; conditions: 250 pM LgBiT-ERRγ, 250 pM 14-3-3γ-SmBiT, 100 μM compound, 50 μM TCEP, overnight
T1 construct: made in house; host or cells: E. coli BL21(DE3)
T1 sequence (P61981 2-238 limits assumed): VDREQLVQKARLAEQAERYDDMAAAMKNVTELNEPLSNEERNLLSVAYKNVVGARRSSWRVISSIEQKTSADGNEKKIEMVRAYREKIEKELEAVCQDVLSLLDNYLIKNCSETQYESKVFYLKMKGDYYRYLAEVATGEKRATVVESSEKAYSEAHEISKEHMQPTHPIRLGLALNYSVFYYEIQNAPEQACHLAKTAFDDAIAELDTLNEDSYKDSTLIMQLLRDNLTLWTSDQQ

14-3-3γ/ERRγ interaction [2] = tested on: 14-3-3γ/ERRγ interaction; design: method as in PMID 36926879; conditions: cited from earlier work
[3] = molecular target: 14-3-3σ/CIP2A interaction (Homo sapiens, UniProt P31947); assay: Confocal microscopy of CIP2A client recruitment to 14-3-3σ-loaded synthetic condensates; type: biochemical; conditions: 100 nM CIP2A; for enhancement of CIP2A recruitment at 100 μM molecular glue: 100 μM compound
PPARγ/PRIPRAP [4] = molecular target: T2, PPARγ/PRIPRAP (Homo sapiens, UniProt P37231); assay: Confocal microscopy of PRIPRAP coregulator recruitment to PPARγ-loaded condensates; type: biochemical; conditions: 100 nM PRIPRAP; for PRIPRAP recruitment to PPARγ-loaded condensates relative to DMSO control: 10 μM ligand, 400 nM PPARγ, overnight
T2 construct: made in house; host or cells: bacterial culture with IPTG induction

PPARγ/PRIPRAP [5] = molecular target: T3, PPARγ/PRIPRAP (Homo sapiens, UniProt P37231); assay: as above; type: biochemical; conditions: GW9662 10 μM + tesaglitazar 10 μM
T3 construct: made in house; host or cells: bacterial culture with IPTG induction
T3 sequence (P37231 235-505): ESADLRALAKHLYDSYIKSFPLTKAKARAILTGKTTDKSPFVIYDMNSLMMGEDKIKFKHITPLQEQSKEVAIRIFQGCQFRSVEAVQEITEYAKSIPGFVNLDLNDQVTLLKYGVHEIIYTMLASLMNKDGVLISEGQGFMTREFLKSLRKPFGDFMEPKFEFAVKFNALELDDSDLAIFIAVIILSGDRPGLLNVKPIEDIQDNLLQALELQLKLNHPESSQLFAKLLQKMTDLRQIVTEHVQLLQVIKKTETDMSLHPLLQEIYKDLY

[6] = Partitioning of autofluorescent chiglitazar into condensates by confocal fluorescence; type: physicochemical; conditions: 10 µM, intensity inside condensates versus dilute solution
14-3-3σ/HSPB6 = molecular target: T4, 14-3-3σ/HSPB6 (Homo sapiens, UniProt P31947); assay: Competition of molecular glue with HSPB6 for 14-3-3σ binding in condensates (confocal microscopy); type: biochemical; conditions: 14-3-3σ-loaded condensates with HSPB6, overnight
T4 sequence (P31947 1-248): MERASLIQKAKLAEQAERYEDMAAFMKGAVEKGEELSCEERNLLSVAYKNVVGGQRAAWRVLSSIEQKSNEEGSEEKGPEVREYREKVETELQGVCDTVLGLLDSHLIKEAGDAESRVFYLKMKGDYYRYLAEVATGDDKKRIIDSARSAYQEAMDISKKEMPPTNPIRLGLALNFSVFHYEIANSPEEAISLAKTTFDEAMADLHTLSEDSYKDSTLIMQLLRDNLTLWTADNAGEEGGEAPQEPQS

apo 14-3-3σ = molecular target: apo 14-3-3σ; design: method as in PMID 30996864; conditions: read-out: KD^II (intrinsic affinity for apo 14-3-3σ); cited from earlier work
14-3-3γ/ERRγ = 14-3-3γ/ERRγ (Homo sapiens, UniProt P61981); assay: pH-dependent fluorescence anisotropy titration of 14-3-3γ to FAM-labeled ERRγ peptide; type: binding; conditions: 100 µM compound
Description: page 10: acetonitrile was used. […] Fluorescence anisotropy (FA) assays […] labeled peptides. […] (1 picture or pasted object on this page, not shown here) page 23: Table S5. […] compound R1. Data obtained from a fit using a four-parameter logistic model to determine KD or KDapp values as 95% confidence interval. The mean s were used for the calculation of the stabilization factor. pH DMSO: KD at 24 h (μM) Compound […] 24 h (μM) Stabilization factor […] 8.0 4.3-8.6 0.054-0.061 103 […] Figure S16. a) Schematic overview of mCherryEA structure and uptake into synthetic condensates. The […] 552 nm, with collection of emission between 562-700 nm in both settings . c) Confocal micrographs of condensates prepared at different pH (bulk pH values shown), with 500 nM of mCherryEA. Excitation was performed at 488 nm or 552 nm, with collection of emission between 562 -700 nm in both settings. d) Plot of the determined local pH values in the condensates relative to the buffer pH (bulk), as determined from the samples in pa nel c and the calibration curve. (1 picture or pasted object on this page, not shown here)

14-3-3γ/ERRγ interaction [7] = molecular target: T5, 14-3-3γ/ERRγ interaction (Homo sapiens, UniProt P61981); assay: Confocal microscopy of FITC-ERRγ recruitment to 14-3-3γ-loaded condensates; conditions: 100 µM compound, 100 nM FITC-ERRγ
T5 sequence (P61981 1-247): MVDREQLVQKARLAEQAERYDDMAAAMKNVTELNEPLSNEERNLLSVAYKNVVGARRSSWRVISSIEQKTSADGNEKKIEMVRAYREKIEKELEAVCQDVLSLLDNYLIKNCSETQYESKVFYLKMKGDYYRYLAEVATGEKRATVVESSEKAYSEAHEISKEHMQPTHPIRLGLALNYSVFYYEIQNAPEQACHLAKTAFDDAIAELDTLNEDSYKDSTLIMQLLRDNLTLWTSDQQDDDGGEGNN

PPARγ/PRIPRAP [8] = assay: Fluorescence anisotropy titration of PPARγ to PRIPRAP peptide with PPAR ligands; type: binding; conditions: FA, PPARγ titrated to PRIPRAP peptide
Description: to prevent aspecific hydrophobic interactions.
4-parameter logistic model . The resulting KD or KDapp obtained from the fit is shown as mean with the

PPARγ/MED1 DRIP-2 = molecular target: T6, PPARγ/MED1 DRIP-2 (Homo sapiens, UniProt P37231); assay: Tesaglitazar-dependent recruitment of MED1 DRIP-2 to PPARγ-loaded condensates; type: biochemical
T6 construct: made in house; host or cells: bacterial culture with IPTG induction
T6 sequence (P37231 238-503 limits assumed): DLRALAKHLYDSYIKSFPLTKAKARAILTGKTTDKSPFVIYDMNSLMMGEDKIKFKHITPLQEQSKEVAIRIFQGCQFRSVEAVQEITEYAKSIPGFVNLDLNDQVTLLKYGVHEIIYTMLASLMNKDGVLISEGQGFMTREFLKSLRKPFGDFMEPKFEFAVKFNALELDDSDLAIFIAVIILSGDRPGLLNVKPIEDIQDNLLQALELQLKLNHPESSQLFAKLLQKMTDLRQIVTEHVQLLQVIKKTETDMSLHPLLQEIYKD
Description: (§1) The dose dependence of the PPI formation was studied using tesaglitazar (Figures 6g, S24 and S25). Here, we found a significant effect in PPI stabilization in the condensates at 10 μM compound. […].

PPARγ/EP300 = molecular target: T7, PPARγ/EP300 (Homo sapiens, UniProt P37231); assay: Tesaglitazar-dependent recruitment of EP300 to PPARγ-loaded condensates; type: biochemical
T7 construct: made in house; host or cells: bacterial culture with IPTG induction
T7 sequence (P37231 238-503 limits assumed): T6 sequence (P37231 238-503 limits assumed)
Description: as §1

[9] = LC-MS assay for partitioning of small molecules between bulk and condensate phase; type: physicochemical; conditions: 100 µM FC, 2 h equilibration
14-3-3σ = molecular target: T8, 14-3-3σ (Homo sapiens, UniProt P31947); assay: Fluorescence anisotropy protein titration of 14-3-3σ to HSPB6 peptide; type: binding
T8 sequence (P31947 1-248): T4 sequence (P31947 1-248)

Molecule: CN(C)CCN(C)C(=O)c1ccc(C=O)c(F)c1 [Compound R5]
- bioluminescence signal in split luciferase assay inside condensates (14-3-3γ/ERRγ interaction [1]): no change in the bioluminescence
- SF100μM (stabilization factor at 100 μM compound concentration) (14-3-3γ/ERRγ interaction [2]): 1

Molecule: C=CC(C)(C)OC[C@H]1O[C@H](O[C@@H]2C3=C(C(C)C)C[C@H](O)[C@]3(C)/C=C3/[C@@H](COC)CC[C@H]3[C@@H](C)[C@H]2O)[C@H](O)[C@@H](O)[C@@H]1O [FC-J]
- enhancement of CIP2A recruitment at 100 μM molecular glue [3]: differentiated performance between the FA assay and the condensates

Molecule: CN(C)CCSSCCN(C)C(=O)c1ccc(C=O)cc1 [Compound R2]
- bioluminescence signal in split luciferase assay inside condensates (14-3-3γ/ERRγ interaction [1]): significantly enhanced bioluminescence signal
- SF100μM (stabilization factor at 100 μM compound concentration) (14-3-3γ/ERRγ interaction [2]): 10

Molecule: O=C(Nc1ccccc1)c1cc([N+](=O)[O-])ccc1Cl [GW9662]
- PRIPRAP recruitment to PPARγ-loaded condensates relative to DMSO control (PPARγ/PRIPRAP [4]): did not influence PRIPRAP recruitment
- effect of antagonist in codosing with tesaglitazar on PRIPRAP recruitment (PPARγ/PRIPRAP [5]): inhibited the stabilizing effect of tesaglitazar

Molecule: chiglitazar
- partitioning coefficient [6]: 23 ± 4

Molecule: C=CC(C)(C)OC[C@H]1O[C@H](O[C@@H]2C3=C([C@H](C)CN4CCCCC4)C[C@H](O)[C@]3(C)/C=C3/[C@@H](COC)CC[C@H]3[C@@H](C)[C@H]2O)[C@H](O)[C@@H](O)[C@@H]1O [FC-31]
- enhancement of CIP2A recruitment at 100 μM molecular glue [3]: significant enhancement of CIP2A recruitment

Molecule: COCC1CCC2C1=CC1(C)C(=C(C(C)C)C3CCOC31)C(OC1OC3COC(C)(C)OC3C(O)C1O)C(O)C2C (stereo not shown) [FC-THF]
- enhancement of CIP2A recruitment at 100 μM molecular glue [3]: significant enhancement of CIP2A recruitment

Molecule: C=CC(C)(C)OC[C@H]1O[C@H](O[C@@H]2C3=C([C@H](C)CNC(C)=O)C[C@H](O)[C@]3(C)/C=C3/[C@@H](COC)CC[C@H]3[C@@H](C)[C@H]2O)[C@H](O)[C@@H](O)[C@@H]1O [FC-NAc]
- enhancement of recruitment of CIP2A at 1 μM molecular glue ([3]; 1 μM compound): significant enhancement of recruitment
- competition with HSPB6 for 14-3-3 binding in condensates (14-3-3σ/HSPB6): significant competition with HSPB6
- Kd (apo 14-3-3σ): 10 µM

Molecule: CN(C)CCSSCCN(C)C(=O)c1cccc(C=O)c1 [Compound R1]
- bioluminescence signal in split luciferase assay inside condensates (14-3-3γ/ERRγ interaction [1]): significantly enhanced bioluminescence signal
- Stabilization factor (14-3-3γ/ERRγ; pH 6.5, 24 h): 3
- Stabilization factor (14-3-3γ/ERRγ; pH 7.0, 24 h): 8
- Stabilization factor (14-3-3γ/ERRγ; pH 7.5, 24 h): 40
- Stabilization factor (14-3-3γ/ERRγ; pH 8.0, 24 h): 103
- Stabilization factor (14-3-3γ/ERRγ; pH 8.5, 24 h): 152
- SF100μM (stabilization factor at 100 μM compound concentration) (14-3-3γ/ERRγ interaction [2]): 21
- ERRγ recruitment to condensates over time (14-3-3γ/ERRγ interaction [7]): reacts over time to yield ERRy recruitment

Molecule: CCO[C@@H](Cc1ccc(OCCc2ccc(OS(C)(=O)=O)cc2)cc1)C(=O)O [Tesaglitazar]
- SF100 μM (stabilization factor, fold change in KD^app in the presence of the compound) (PPARγ/PRIPRAP [8]): 19
- PRIPRAP recruitment to PPARγ-loaded condensates relative to DMSO control (PPARγ/PRIPRAP [4]): significant recruitment of PRIPRAP
- compound concentration with significant effect in PPI stabilization in the condensates (PPARγ/PRIPRAP [4]; dose dependence): 10 µM
- ligand-mediated stabilization of PPARγ/MED1 DRIP-2 in condensates (PPARγ/MED1 DRIP-2): ligand-mediated stabilization of the PPI was observed
- ligand-mediated stabilization of PPARγ/EP300 in condensates (PPARγ/EP300): ligand-mediated stabilization of the PPI was observed

Molecule: C=CC(C)(C)OCC1OC(OC2C3=C(C(C)COC(C)=O)CC(O)C3(C)C=C3C(COC)CCC3C(C)C2O)C(O)C(O)C1O (stereo not shown) [FC, Fusicoccin A]
- partitioning coefficient to the condensate phase [9]: 0.96 ± 0.02

Molecule: CN(C)CCSSCCN(C)C(=O)c1cc(Br)cc(C=O)c1 [Compound R3]
- bioluminescence signal in split luciferase assay inside condensates (14-3-3γ/ERRγ interaction [1]): significantly enhanced bioluminescence signal
- SF100μM (stabilization factor at 100 μM compound concentration) (14-3-3γ/ERRγ interaction [2]): 37

Molecule: CN(C)CCSSCCN(C)C(=O)c1cccc(F)c1 [Compound R4]
- SF100μM (stabilization factor at 100 μM compound concentration) (14-3-3γ/ERRγ interaction [2]): 5

Molecule: CCN(CC)c1ccc2c(-c3ccc(NC(=S)NCCOCC(=O)N[C@@H](Cc4c[nH]c5ccccc45)C(=O)N[C@@H](CC(C)C)C(=O)N[C@@H](CCCNC(=N)N)C(=O)N[C@@H](CCCNC(=N)N)C(=O)N[C@@H](C)C(=O)N[C@@H](COP(=O)(O)O)C(=O)N[C@@H](C)C(=O)N4CCC[C@H]4C(=O)N[C@@H](CC(C)C)C(=O)N4CCC[C@H]4C(=O)NCC(=O)N[C@@H](CC(C)C)C(=O)N[C@@H](CO)C(=O)N[C@@H](C)C(=O)N4CCC[C@H]4C(N)=O)cc3C(=O)[O-])c3ccc(=[N+](CC)CC)cc-3oc2c1 [HSPB6] ({X1-AEA}-WLRRA[pS]APLPGLSAP-NH2; C-terminus assumed)
- fold lower KD for 14-3-3σ than CIP2A in dilute solution (14-3-3σ): > 10 fold
